Blank lines part the entries; values can stand above or below the substance they belong to. Where no end group is shown, it is not given here.
How the values were obtained:
EPO receptor = target: T1, EPO receptor (Homo sapiens, UniProt P19235); assay: competition with 125I-labeled EPO for binding to the EPO receptor
T1 sequence (P19235 25-508): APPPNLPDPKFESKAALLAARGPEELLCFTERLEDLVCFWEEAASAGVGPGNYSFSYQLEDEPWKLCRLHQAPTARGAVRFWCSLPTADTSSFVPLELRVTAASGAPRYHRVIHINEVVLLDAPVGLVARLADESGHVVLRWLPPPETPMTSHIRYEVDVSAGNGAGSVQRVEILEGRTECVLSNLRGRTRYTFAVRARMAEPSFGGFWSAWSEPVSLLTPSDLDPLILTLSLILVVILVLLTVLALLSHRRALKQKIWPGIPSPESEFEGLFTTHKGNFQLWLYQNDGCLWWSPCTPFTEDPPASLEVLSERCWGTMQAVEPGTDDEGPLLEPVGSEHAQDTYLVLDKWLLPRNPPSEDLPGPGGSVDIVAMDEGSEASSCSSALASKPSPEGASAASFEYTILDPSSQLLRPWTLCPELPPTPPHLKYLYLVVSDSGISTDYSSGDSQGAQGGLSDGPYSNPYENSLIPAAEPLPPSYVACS

[1] = 50% serum; cited from earlier work
DIO mice [2] = assay: IPGTT in DIO (diet induced obese) mice; type: in vivo; settings: 5 days after dosing
Description: (§1) The experiment described in Example 1 was repeated in DIO (diet induced obese) mice following dosing of CNTO 530 (0.3 mg/kg). This murine model is believed to be more representative of the human disease since the mice become diabetic after being fed a high fat diet (Purina TestDiet #58126 consisting of 60.9% kcal fat and 20.8% kcal carbohydrates). As described in Example 1, an IPGTT was done on the day of dosing and seven days after dosing. The time points during the IPGTT were 15, 30, 60, 90, 120, 150, and 180 minutes after glucose challenge. After the IPGTT was completed on day 7, the mice were sacrificed and whole blood (in EDTA) was collected via cardiac puncture for hematology studies.
(§2) Mice (DIO; n=7) were fasted overnight and fasting blood glucose (FBG) was measured. The animals were randomized based upon FBG. The mice were dosed intravenously with CNTO 530 (0.3 mg/kg) and given glucose intraperitonealy (0.5 mg/g) ten minutes later. Blood glucose was measured at various times (10, 20, 30, 60, 90, 120, 150, 180 minutes after glucose). The IPGTTs were repeated 7, 14, 21, 28, and 35 days after that initial single dose. […]
(§3) Mice (DIO; n=7) were fasted overnight and fasting blood glucose (FBG) was measured. […]
as §3

DIO mice [3] = assay: hematology (hemoglobin, reticulocytes) in DIO mice; type: in vivo; settings: DIO mice, 0.03, 0.1, 0.3 mg/kg i.v., five days after dosing
Description: as §1, §2, §3, §3

DIO mice [4] = assay: fasting blood glucose in DIO mice; type: in vivo; settings: DIO mice, 0.03, 0.1, 0.3 mg/kg i.v., 5 days after dosing
Description: (§4) Mice (DIO; n=7) were fasted overnight and fasting blood glucose (FBG) was measured. The animals were randomized based upon FBG and dosed intravenously with EPO (0.03, 0.1, 0.3 mg/kg). An IPGTT (as described above) was done 5 days after dosing. The animals were sacrificed after the IPGTT and whole blood was collected for hematology measurements.
as §4, with “darbepoetin (0.01, 0.03, 0.1” for “EPO (0.03, 0.1, 0.3”, “7” for “5”

[5] = system: patients with baseline HbA1C 6.0 or higher; assay: datamining of clinical data (GE Clinical Data Services EMR database), patients prescribed EPO; type: in vivo, human; settings: for magnitude of HbA1C decline: first 3 months after EPO; for fasting blood glucose after EPO: end of time course
Excerpt: GE Healthcare's Clinical Data Services database contains de-identified, normalized, longitudinal, patient-level Electronic Medical Record data from nearly to 4,000 US based physicians practicing in ambulatory setting who use GE Centricity EMR system. This database contains data on >4.7M patient lives. Average follow up time is approximately 3 years. The database contains information on Patient demographics, medical history, visit type, clinical observations (including Diagnosis codes), laboratory test results and medications prescribed. JNJ has purchased a license to this dataset and mined it to look for outcomes on diabetic parameters in patients who were prescribed EPO for anemia.
Population was further filtered to identify patients with Pre-EPO measurements followed by post-EPO measurements on the following variables of interest • Blood glucose, fasting • Hemoglobin A1c as % of total hemoglobin • Hemoglobin, blood • Hematocrit, blood
Patients with at least 1 pre- (up to 60 days prior) and 1 post- (up to 6 months after) EPO treatment measurements were considered for analysis. Number of patients meeting this criterion varied in numbers for different variables and time zones. Patients who were on EPO medication and also had mean HbA1c value of 6.0 or higher were considered as diabetic.

[6] = cited from earlier work
[7] = system: patients with end-stage renal disease; settings: cited from earlier work
[8] = in vivo; cited from earlier work
[9] = system: EPO dependent UT-7/EPO cell line; assay: in vitro bioactivity assay: viability of rHuEPO-starved UT-7/EPO cells (MTS); type: cell-based, human; settings: for activity compared with rHuEPO: in vitro cell proliferation assay
Description: The activity of EMP-Hinge core mimetibody was first tested in an in vitro bioactivity assay. For this assay, the EPO dependent UT-7/EPO cell line, derived from a patient with acute megakaryoblastic leukemia, was used (Komatsu et al., 1993, Blood, vol. 82 (2), 456-464). These cells undergo programmed cell death 48 to 72 hours after withdraw from media supplemented with rHuEPO. Cells that have been incubated in the absence of rHuEPO for 24 hours can be saved if treated with rHuEPO or an EPOR agonist. EMP-Hinge core mimetibody was added to cells starved without rHuEPO and cell viability was determined 48 hours after treatment using the tetrazolium compound MTS (CellTiter 96 Aqueous One Solution, Promega) that is metabolized by living cells to yield a product with an absorbance that can be measured. […] In addition, these same cells were stimulated with EMP-Hinge core mimetibody and tyrosine phosphorylation patterns visualized by running cell lysate through a polyacrylamide gel.

normal mice = assay: effects on erythropoiesis (hematocrit) in normal mice; type: in vivo; settings: dosed equally / equal activity units
Excerpt: (§5) In vivo studies were done in normal mice to compare the half-life of EMP-Hinge core mimetibody to that of rHuEPO and to compare their effects on erythropoiesis.

[10] = serum concentrations by ELISA, half-life in normal mice; type: in vivo
Description: as §5
The serum concentrations of both rHuEPO and EMP-Hinge core mimetibody were measured by ELISA.

[11] = system: cells that express the EPO receptor; assay: complement lysis of cells that express the EPO receptor; type: cell-based; settings: preliminary studies
Excerpt: It has been shown that mutation of two […] (L) residues, L234 & L235, in the IgG1 lower hinge region to alanine (A) will abrogate the ability of the immunoglobulin to mediate complement dependent cytotoxicity (CDC) and antibody dependant cellular cytotoxicity (ADCC) (Hezereh et al., 2001, J. Virol., vol. 75 (24), 12161-68). […] This may be due to the low number of receptors that are found on erythroid progenitor cells. In addition the in vivo expansion of erythroid progenitors as evidenced by significant increases in hematocrit supports the possible functional irrelevance of immune effector functions. However, while no effector function associated affects have been observed, there remains an interest in introducing these mutations as a precautionary step.

[12] = baseline HbA1C 7%-8% (7.38%), first month
[13] = baseline HbA1C 8%-9% (8.35%), first month
[14] = baseline HbA1C >9% (10.18), first month
[15] = longitudinal patients, baseline under 126 mg/dL (102 mg/dL)
[16] = UT-7/EPO cells, viability 48 hours after treatment
[17] = listed as EMP-hinge core mimetibody

competition with 125I-labeled EPO for binding to the EPO receptor (EPO receptor): competes
Substance: EMP-1: 20 amino acid peptide with no sequence homology to HuEPO that activates the EPO receptor as a dimer (GGTYSCHFGPLTWVCKPQGG)
ex-vivo half-life [1]: 8 h

Substance: EPO: glycoprotein hormone of 165 amino acids and four carbohydrate chains, primary regulator of erythropoiesis
glucose tolerance (IPGTT) (DIO mice [2]; 0.03 mg/kg i.v.): modest improvement
glucose tolerance (IPGTT) (DIO mice [2]; 0.3 mg/kg i.v.): modest improvement
hemoglobin (DIO mice [3]): not significantly elevated
reticulocytes (DIO mice [3]): significantly increased in a dose dependent manner
fasting blood glucose (DIO mice [4]): no statistically significant reduction
decline in HbA1C level ([5]; baseline HbA1C 6.0%-7.0%): no decline
HbA1C level after EPO [5, 12]: 6.99%
decline in HbA1C level [5, 12]: 0.39%
HbA1C level after EPO [5, 13]: 7.51%
decline in HbA1C level [5, 13]: 0.84%
HbA1C level after EPO [5, 14]: 8.49%
decline in HbA1C level [5, 14]: approximately 1.69%
HbA1C level after EPO ([5]; longitudinal dataset, baseline HbA1C 7-8% (7.47%), first 3 months): 7.01%
magnitude of HbA1C decline ([5]; longitudinal dataset, baseline HbA1C 7-8% (7.47%)): 0.46%
further HbA1C change ([5]; longitudinal dataset, baseline HbA1C 7-8%, next 3 months): no significant further change
HbA1C level after EPO ([5]; longitudinal dataset, baseline HbA1C >8 (9.41%), first 3 months): 8.46%
magnitude of HbA1C decline ([5]; longitudinal dataset, baseline HbA1C >8 (9.41%)): 0.95%
further HbA1C change ([5]; longitudinal dataset, baseline HbA1C >8, next 3 month period): no further decline
fasting blood glucose after EPO ([5]; longitudinal patients, baseline FBG>126 mg/dL (173 mg/dL)): 145 mg/dL
decline in fasting blood glucose, average ([5]; longitudinal patients, baseline FBG>126 mg/dL (173 mg/dL), entire time course): 28 mg/dL
decline in FBG level ([5]; longitudinal patients, baseline under 126 mg/dL): do not show any decline
increase in FBG at the end of the time course [5, 15]: 5 mg/dL
fasting blood glucose after EPO [5, 15]: 107 mg/dL
HbA1C level drop, average ([5]; patients with baseline HbA1C above 6.0, first month after EPO administration): 0.5%
decrease in fasting blood glucose concentration ([5]; patients with baseline HbA1C above 6.0, maximum decline over a 4 month period): approximately 30 mg.dL
improvement in hemoglobin ([5]; patients, clinical data): < 1%
Hemoglobin level ([5]; patients, over a 3 month period after initial EPO administration, then plateau): increases steadily
time to peak serum levels ([6]; subcutaneous administration): 5 to 24 h
time detectable plasma levels are maintained ([6]; within the therapeutic dose range): at least 24 hours
blood triglyceride, total cholesterol and LDL levels [7]: concomitant improvement
insulin resistance [7]: improve insulin resistance

Substance: CERA: Roche's pegylated epoetin
half-life compared with epoetin / EPO [8]: longer half life

Substance: EMP-Hinge core mimetibody: V-EMP-1-linker-hinge core-CH2-CH3 construct of IgG1 or IgG4 subclass, SEQ ID NOS: 82-89 (QIQGGTYSCHFGPLTWVCKPQGG; cysteine pairing not given here; also: fused via linker to hinge core-CH2-CH3 of IgG1 or IgG4)
potency on a molar basis, fold greater than the EMP-1 peptide [9, 16]: 500 fold
potency on a molar basis, fold less than rHuEPO [9, 16]: 5 fold
potency on a molar basis, fold greater than the EMP-1 peptide ([9]; UT-7/EPO cells, viability 48 hours after treatment, listed as EMP-hinge core mimetibody): more than 500 fold
activity compared with rHuEPO [9]: in the range of rHuEPO
activity compared with rHuEPO [9, 17]: substantially similar to recombinant HuEPO
duration of response compared to rHuEPO (normal mice): prolonged
maximal response (hematocrit) compared to rHuEPO (normal mice): higher maximal response
duration of response compared to rHuEPO (normal mice; [17]): maintained for a longer period
maximal response (hematocrit) compared to rHuEPO (normal mice; [17]): significantly higher maximal hematocrit
approximate half-life relative to rHuEPO [10]: at least several times that of rHuEPO
complement lysis [11]: does not mediate complement lysis
